Assay results published in US20240408099A1, “COMBINATION […] OF KRAS G12D INHIBITORS WITH Pan ErbB FAMILY INHIBITORS” (MIRATI THERAPEUTICS, INC., priority 2021, published 2024).

Experiments:
Assay type in all cases: in vivo, nude/nude mice
AsPC-1 cells [1] = assay: AsPC-1 TGI 26 pancreatic cancer xenograft, tumor volumes; settings: for Average Tumor Volumes: 30 mg/kg IP BID daily
Method: (§1) Immunocompromised nude/nude mice are inoculated in the right hind flank with cells harboring a KRas G12D mutation. When tumor volumes reach between 200-400 mm^3 in size, the mice are divided into four to five groups of 5 mice each. The first group is administered vehicle only. […] The fourth or last groups are administered the single agent dose of the KRas G12D inhibitor using the twice daily schedule and/or the 2 sequential days followed by 5 days off schedule in combination with the single agent dose of one of the EGFR inhibitors. […] Tumor volumes are measured using a caliper every two-three days and tumor volumes are calculated by the formula: […].
Experimental Procedures. 20 nude/nude mice were inoculated with AsPC-1 cells in the right hind flank. When the tumors reached ˜200 mm^3 four treatment groups were established with five mice per group.

HPAC cells = assay: HPAC TGI 73 pancreatic cancer xenograft, tumor volumes; settings: for Average Tumor Volumes: 30 mg/kg IP BID daily
Method: (§2) Immunocompromised nude/nude mice are inoculated in the right hind flank with cells harboring a KRas G12D mutation. When tumor volumes reach between 200-400 mm^3 in size, the mice are divided into four to five groups of 5 mice each. The first group is administered vehicle only. […] The fourth or last groups are administered the single agent dose of the KRas G12D inhibitor using the twice daily schedule and/or the 2 sequential days followed by 5 days off schedule in combination with the single agent dose of one of the EGFR inhibitors. The treatment period varies from cell line to cell line but typically is between 15-40 days. Tumor volumes are measured using a caliper every two-three days and tumor volumes are calculated by the formula: […].
Experimental Procedures. 20 nude/nude mice were inoculated with HPAC cells in the right hind flank. When the tumors reached ˜200 mm^3 four treatment groups were established with five mice per group.

Panc 02.03 = Panc 02.03 TGI-43 pancreatic cancer xenograft (Table 5), tumor volumes; settings: for Average Tumor Volumes: 30 mg/kg BID 2x/week
Method: as §1
20 to 30 nude/nude mice per study were inoculated in the right hind limb with 5×10^6 LS180 cells, AsPC-1 cells, GP2D cells, Panc 02.03 cells, SW1990 cells, or SNU-1033 cells. […]

GP2D cells = assay: GP2D TGI MDS 200108-807 colorectal cancer xenograft, tumor volumes; settings: for Average Tumor Volumes: 30 mg/kg BID Daily
Method: as §1
(§3) 20 to 30 nude/nude mice per study were inoculated in the right hind limb with 5×10^6 LS180 cells, AsPC-1 cells, GP2D cells, Panc 02.03 cells, SW1990 cells, or SNU-1033 cells.
Experimental Procedures. 20 nude/nude mice were inoculated with GP2D cells in the right hind flank. When the tumors reached ˜300 mm^3 four treatment groups were established with five mice per group.

AsPC-1 cells [2] = assay: AsPC-1 TGI-42 pancreatic cancer xenograft, tumor volumes
Method: as §2, §3
Experimental Procedures. 30 nude/nude mice were inoculated with AsPC-1 cells in the right hind flank. When the tumors reached ˜300 mm^3 six treatment groups were established with five mice per group.

LS180 cells = assay: LS180 colon cancer xenograft, tumor volumes; settings: for tumor growth inhibition: 30 mg/kg BID, single agent, Day 15
Method: as §1, §3
Experimental Procedures. 25 nude/nude mice were inoculated with LS180 cells in the right hind flank. When the tumors reached ˜250 mm^3 five treatment groups were established with five mice per group.

SW1990 cells = assay: SW1990 TGI MDS #200407-807 pancreatic cancer xenograft, tumor volumes; settings: for Average Tumor Volumes: 30 mg/kg BID Daily
Method: as §1, §3
Experimental Procedures. 30 nude/nude mice were inoculated with SW1990 cells in the right hind flank. When the tumors reached ˜300 mm^3 six treatment groups were established with five mice per group.

[3] = 30 mg/kg BID 2x/week, Study Day 1
[4] = 30 mg/kg BID Daily, Study Day 1

Q: `C#Cc1c(F)ccc2cc(O)cc(-c3ncc4c(N5C[C@H]6CC[C@@H](C5)N6)nc(OC[C@@]56CCCN5C[C@H](F)C6)nc4c3F)c12` [MRTX1133, 4-(4-((1R,5S)-3,8-diazabicyclo[3.2.1]octan-3-yl)-8-fluoro-2-(((2R,7aS)-2-fluorohexahydro-1H-pyrrolizin-7a-yl)methoxy)pyrido[4,3-d]pyrimidin-7-yl)-5-ethynyl-6-fluoronaphthalen-2-ol] was tested. Which “Average Tumor Volumes” value (AsPC-1 cells [1]; Study Day 0) did it give?
A: 197.468 mm^3

Q: What about the “Average Tumor Volumes” value (AsPC-1 cells [1]; Study Day 4) of the same molecule?
A: 194.514 mm^3

Q: And the “Average Tumor Volumes” value (AsPC-1 cells [1]; Study Day 7)?
A: 175.198 mm^3

Q: And the “Average Tumor Volumes” value (AsPC-1 cells [1]; Study Day 11)?
A: 159.756 mm^3

Q: And the “Average Tumor Volumes” value (AsPC-1 cells [1]; Study Day 14)?
A: 172.986 mm^3

Q: What about the “Average Tumor Volumes” value (AsPC-1 cells [1]; Study Day 18) of the same molecule?
A: 168.412 mm^3

Q: And the “Average Tumor Volumes” value (AsPC-1 cells [1]; Study Day 21)?
A: 143.928 mm^3

Q: And the “Average Tumor Volumes” value (AsPC-1 cells [1]; Study Day 25)?
A: 149.308 mm^3

Q: What about the tumor regression (AsPC-1 cells [1]; 30 mg/kg twice daily, single agent, Day 25) of the same molecule?
A: −24%

Q: What about the “Average Tumor Volumes” value (HPAC cells; Study Day 0) of the same molecule?
A: 196.76 mm^3

Q: And the “Average Tumor Volumes” value (HPAC cells; Study Day 3)?
A: 149.646 mm^3

Q: And the “Average Tumor Volumes” value (HPAC cells; Study Day 7)?
A: 107.504 mm^3

Q: What about the “Average Tumor Volumes” value (HPAC cells; Study Day 10) of the same molecule?
A: 99.742 mm^3

Q: And the “Average Tumor Volumes” value (HPAC cells; Study Day 14)?
A: 91.818 mm^3

Q: And the “Average Tumor Volumes” value (HPAC cells; Study Day 17)?
A: 93.348 mm^3

Q: And the “Average Tumor Volumes” value (HPAC cells; Study Day 21)?
A: 74.006 mm^3

Q: And the tumor regression (HPAC cells; 30 mg/kg daily, single agent, Day 21)?
A: −62%

Q: What about the “Average Tumor Volumes” value (Panc 02.03; Study Day 1) of the same molecule?
A: 329.18 mm^3

Q: And the “Average Tumor Volumes” value (Panc 02.03; Study Day 4)?
A: 265.246 mm^3

Q: What about the “Average Tumor Volumes” value (Panc 02.03; Study Day 8) of the same molecule?
A: 386.354 mm^3

Q: And the “Average Tumor Volumes” value (Panc 02.03; Study Day 11)?
A: 392.042 mm^3

Q: What about the “Average Tumor Volumes” value (Panc 02.03; Study Day 15) of the same molecule?
A: 480.434 mm^3

Q: And the “Average Tumor Volumes” value (Panc 02.03; Study Day 18)?
A: 496.496 mm^3

Q: What about the “Average Tumor Volumes” value (Panc 02.03; Study Day 22) of the same molecule?
A: 549.618 mm^3

Q: What about the tumor growth inhibition (Panc 02.03; 30 mg/kg BID (twice per week), single agent, Day 22) of the same molecule?
A: 72%

Q: What about the “Average Tumor Volumes” value (GP2D cells; Study Day 2) of the same molecule?
A: 341.3 mm^3

Q: And the “Average Tumor Volumes” value (GP2D cells; Study Day 6)?
A: 282.98 mm^3

Q: And the “Average Tumor Volumes” value (GP2D cells; Study Day 9)?
A: 237.18 mm^3

Q: And the “Average Tumor Volumes” value (GP2D cells; Study Day 13)?
A: 244.1 mm^3

Q: And the “Average Tumor Volumes” value (GP2D cells; Study Day 16)?
A: 198.725 mm^3

Q: What about the “Average Tumor Volumes” value (GP2D cells; Study Day 20) of the same molecule?
A: 288.05 mm^3

Q: What about the “Average Tumor Volumes” value (GP2D cells; Study Day 23) of the same molecule?
A: 339 mm^3

Q: What about the “Average Tumor Volumes” value (GP2D cells; Study Day 27) of the same molecule?
A: 385.85 mm^3

Q: What about the “Average Tumor Volumes” value (GP2D cells; Study Day 30) of the same molecule?
A: 394.05 mm^3

Q: What about the tumor growth inhibition (GP2D cells; 30 mg/kg BID daily, single agent, Day 30) of the same molecule?
A: 96%

Q: What about the “Average Tumor Volumes” value (AsPC-1 cells [2]; [3]) of the same molecule?
A: 325.894 mm^3

Q: And the “Average Tumor Volumes” value (AsPC-1 cells [2]; 30 mg/kg BID 2x/week, Study Day 6)?
A: 394.182 mm^3

Q: And the “Average Tumor Volumes” value (AsPC-1 cells [2]; 30 mg/kg BID 2x/week, Study Day 9)?
A: 472.586 mm^3

Q: And the “Average Tumor Volumes” value (AsPC-1 cells [2]; 30 mg/kg BID 2x/week, Study Day 13)?
A: 496.598 mm^3

Q: What about the “Average Tumor Volumes” value (AsPC-1 cells [2]; 30 mg/kg BID 2x/week, Study Day 16) of the same molecule?
A: 554.052 mm^3

Q: What about the “Average Tumor Volumes” value (AsPC-1 cells [2]; 30 mg/kg BID 2x/week, Study Day 20) of the same molecule?
A: 586.5625 mm^3

Q: What about the “Average Tumor Volumes” value (AsPC-1 cells [2]; 30 mg/kg BID 2x/week, Study Day 23) of the same molecule?
A: 640.49 mm^3

Q: And the “Average Tumor Volumes” value (AsPC-1 cells [2]; 30 mg/kg BID 2x/week, Study Day 27)?
A: 679.96 mm^3

Q: What about the “Average Tumor Volumes” value (AsPC-1 cells [2]; 30 mg/kg BID 2x/week, Study Day 30) of the same molecule?
A: 795.11 mm^3

Q: What about the “Average Tumor Volumes” value (AsPC-1 cells [2]; 30 mg/kg BID 2x/week, Study Day 34) of the same molecule?
A: 862.74 mm^3

Q: What about the “Average Tumor Volumes” value (AsPC-1 cells [2]; [4]) of the same molecule?
A: 323.454 mm^3

Q: What about the “Average Tumor Volumes” value (AsPC-1 cells [2]; 30 mg/kg BID Daily, Study Day 6) of the same molecule?
A: 356.398 mm^3

Q: And the “Average Tumor Volumes” value (AsPC-1 cells [2]; 30 mg/kg BID Daily, Study Day 9)?
A: 374.684 mm^3

Q: What about the “Average Tumor Volumes” value (AsPC-1 cells [2]; 30 mg/kg BID Daily, Study Day 13) of the same molecule?
A: 316.51 mm^3

Q: What about the “Average Tumor Volumes” value (AsPC-1 cells [2]; 30 mg/kg BID Daily, Study Day 16) of the same molecule?
A: 291.71 mm^3

Q: And the “Average Tumor Volumes” value (AsPC-1 cells [2]; 30 mg/kg BID Daily, Study Day 20)?
A: 269.246 mm^3

Q: What about the “Average Tumor Volumes” value (AsPC-1 cells [2]; 30 mg/kg BID Daily, Study Day 23) of the same molecule?
A: 213.334 mm^3

Q: What about the “Average Tumor Volumes” value (AsPC-1 cells [2]; 30 mg/kg BID Daily, Study Day 27) of the same molecule?
A: 195.354 mm^3

Q: What about the “Average Tumor Volumes” value (AsPC-1 cells [2]; 30 mg/kg BID Daily, Study Day 30) of the same molecule?
A: 216.072 mm^3

Q: What about the “Average Tumor Volumes” value (AsPC-1 cells [2]; 30 mg/kg BID Daily, Study Day 34) of the same molecule?
A: 266.324 mm^3

Q: And the tumor regression (AsPC-1 cells [2]; 30 mg/kg BID daily, single agent, Day 34)?
A: −9%

Q: What about the “Average Tumor Volumes” value (LS180 cells; [3]) of the same molecule?
A: 272.338 mm^3

Q: And the “Average Tumor Volumes” value (LS180 cells; 30 mg/kg BID 2x/week, Study Day 4)?
A: 570.528 mm^3

Q: What about the “Average Tumor Volumes” value (LS180 cells; 30 mg/kg BID 2x/week, Study Day 8) of the same molecule?
A: 1134.668 mm^3

Q: And the “Average Tumor Volumes” value (LS180 cells; 30 mg/kg BID 2x/week, Study Day 11)?
A: 1439.99 mm^3

Q: And the “Average Tumor Volumes” value (LS180 cells; 30 mg/kg BID 2x/week, Study Day 15)?
A: 1899.832 mm^3

Q: And the “Average Tumor Volumes” value (LS180 cells; [4])?
A: 268.94 mm^3

Q: What about the “Average Tumor Volumes” value (LS180 cells; 30 mg/kg BID Daily, Study Day 4) of the same molecule?
A: 418.808 mm^3

Q: What about the “Average Tumor Volumes” value (LS180 cells; 30 mg/kg BID Daily, Study Day 8) of the same molecule?
A: 593.71 mm^3

Q: And the “Average Tumor Volumes” value (LS180 cells; 30 mg/kg BID Daily, Study Day 11)?
A: 808.808 mm^3

Q: And the “Average Tumor Volumes” value (LS180 cells; 30 mg/kg BID Daily, Study Day 15)?
A: 1197.106 mm^3

Q: And the tumor growth inhibition (LS180 cells; daily administration)?
A: 45%

Q: And the tumor growth inhibition (LS180 cells; twice per week administration)?
A: 4%

Q: What about the “Average Tumor Volumes” value (SW1990 cells; Study Day 2) of the same molecule?
A: 265.08 mm^3

Q: And the “Average Tumor Volumes” value (SW1990 cells; Study Day 6)?
A: 194.42 mm^3

Q: And the “Average Tumor Volumes” value (SW1990 cells; Study Day 9)?
A: 187.24 mm^3

Q: And the “Average Tumor Volumes” value (SW1990 cells; Study Day 13)?
A: 241.84 mm^3

Q: And the “Average Tumor Volumes” value (SW1990 cells; Study Day 16)?
A: 235.32 mm^3

Q: And the “Average Tumor Volumes” value (SW1990 cells; Study Day 20)?
A: 214.98 mm^3

Q: And the “Average Tumor Volumes” value (SW1990 cells; Study Day 23)?
A: 195.04 mm^3

Q: What about the “Average Tumor Volumes” value (SW1990 cells; Study Day −1) of the same molecule?
A: 362.82 mm^3

Q: And the tumor regression (SW1990 cells; 30 mg/kg BID daily, single agent, Day 23)?
A: −46%
